{"source": "patent US6391826B1", "about": "“Optically active uracil compounds” (Sumitomo Chemical Company, Limited, priority 1998, dated 2002)", "assay_type_in_all_cases": "in vivo", "set-up_in_all_cases": "key: “0” means that there was no or little difference in the degree of germination or growth between the treated and the untreated tested plants at the time of examination; “5” means that the test plants died complete or their germination or growth was completely inhibited", "key": {"[1]": {"test_system": "barnyardgrass (Echinochloa crus-gali)", "experiment": "Test Example 4: soil surface treatment on upland fields", "conditions": "examined after 25 days, index 0-5", "protocol": "(§1) Soil Surface Treatment on upland fields Plastic pots which have an area of (26.5×19)cm^2 and a depth of 7 cm were filled with upland soil, seeded with hemp sesbania (Sesbania exaltata), barnyardgrass (Echinochloa crus-gali) and johnsongrass (Sorghum halepense). Each of the test compounds was formulated into emulsifiable concentrates according to Formulation Example 2, which was diluted with a designated amount of water, and such was uniformly sprayed over the soil surface in the pots with a sprayer at a volume of 100 liters per hectare. After the application, the test were grown in a greenhouse for 25 days, and the herbicidal activity was examined."}, "[2]": {"test_system": "hemp sesbania (Sesbania exaltata)", "experiment": "Test Example 4: soil surface treatment on upland fields", "conditions": "examined after 25 days, index 0-5", "protocol": "as §1"}, "[3]": {"test_system": "johnsongrass (Sorghum halepense)", "experiment": "Test Example 4: soil surface treatment on upland fields", "conditions": "examined after 25 days, index 0-5", "protocol": "as §1"}, "[4]": {"test_system": "johnsongrass (Sorghum halepense)", "experiment": "Test Example 5: soil incorporation treatment on upland fields", "conditions": "examined after 19 days, index 0-5", "text": "(§2) Soil Incorporation Treatment on Upland Fields Cylindrical plastic pots of 10 cm in diameter and a 10 cm in depth were filled with upland soil. The soil from the surface to 3 cm in depth was taken and mixed with the dilution which was given by diluting the emulsifiable concentrates of the test compounds, formulated according to Formulation Example 2, with water at a volume of 606 liters per hectare. Thereafter, the treated soil was put back to the pots, in which johnsongrass (Sorghum halepense) was sowed at 1.5 cm in depth. The test plants were grown in a greenhouse for 19 days, and the herbicidal activity was examined."}, "[5]": {"test_system": "johnsongrass (Sorghum halepense)", "experiment": "Test Example 6: soil surface treatment on upland fields", "conditions": "examined after 25 days, index 0-5", "protocol": "(§3) Soil Surface Treatment on Upland Fields Plastic pots which have an area of (26.5×19)cm^2 and a depth of 7 cm were filled with upland soil, seeded with johnsongrass (Sorghum halepense). Each of the test compounds was formulated into emulsifiable concentrates according to Formulation Example 2, which was diluted with a designated amount of water, and such was uniformly sprayed over the soil surface in the pots with a sprayer at a volume of 1000 liters per hectare. After the application, the test plants were placed in a greenhouse for 25 days, and the herbicidal activity was examined."}, "[6]": {"test_system": "johnsongrass (Sorghum halepense)", "experiment": "Test Example 2: soil surface treatment on upland fields", "conditions": "examined after 25 days, index 0-5", "protocol": "Soil Surface Treatment on Upland Fields\nas §3, with “Plastic” for “Soil Surface Treatment on Upland Fields Plastic”, “grown” for “placed”"}, "[7]": {"test_system": "johnsongrass (Sorghum halepense)", "experiment": "Test Example (Table 3): soil incorporation treatment on upland fields", "conditions": "examined after 19 days, index 0-5", "text": "Soil Incorporation Treatment on Upland Fields\nas §2, with “Cylindrical” for “Soil Incorporation Treatment on Upland Fields Cylindrical”"}, "[8]": {"test_system": "common cocklebur (Xanthium strumarium)", "experiment": "Test Example 1: foliar treatment on upland fields", "conditions": "1 g/ha active ingredient; foliar spray on 21-day plants, 1% Agri-Dex; examined after 21 days; index 0-5", "protocol": "Foliar Treatment on Upland Fields\nPlastic pots which have an area of (26.5×19)cm^2 and a depth of 7 cm were filled with upland soil, seeded with common cocklebur (Xanthium strumarium) and were given 21 days to grow in a greenhouse. Each of the test compounds was formulated into emulsifiable concentrates according to Formulation Example 2, which was diluted with a designated amount of water containing 1% Agri-Dex (adjuvant produced by Helena Chemical Company), and such was uniformly sprayed over the foliage of the test plants with a sprayer at a volume of 1000 liters per hectare. After the application, the test plants were grown in the greenhouse for 21 days, and the herbicidal activity was examined."}}}
{"smiles": "CCOC(=O)C(C)Oc1cc(-n2c(=O)cc(C(F)(F)F)n(C)c2=O)c(F)cc1Cl", "note": "(racemic) [Comparative Compound 2, ethyl (2RS)-2-[2-chloro-4-fluoro-5-[3-methyl-2,6-dioxo-4-(trifluoromethyl)-1,2,3,6-tetrahydropyrimidin-1-yl]phenoxy]propionate]", "values": [{"measurement": "Herbicidal Activity barnyard-grass", "setting": "[1]; 16 g/ha", "value": 0}, {"measurement": "Herbicidal Activity barnyard-grass", "setting": "[1]; 32 g/ha", "value": 3}, {"measurement": "Herbicidal Activity barnyard-grass", "setting": "[1]; 63 g/ha", "value": 3}, {"measurement": "Herbicidal Activity barnyard-grass", "setting": "[1]; 125 g/ha", "value": 5}, {"measurement": "Herbicidal Activity hemp sesbania", "setting": "[2]; 16 g/ha", "value": 0}, {"measurement": "Herbicidal Activity hemp sesbania", "setting": "[2]; 32 g/ha", "value": 2}, {"measurement": "Herbicidal Activity hemp sesbania", "setting": "[2]; 63 g/ha", "value": 3}, {"measurement": "Herbicidal Activity hemp sesbania", "setting": "[2]; 125 g/ha", "value": 4}, {"measurement": "Herbicidal Activity johnson-grass", "setting": "[3]; 16 g/ha", "value": 0}, {"measurement": "Herbicidal Activity johnson-grass", "setting": "[3]; 32 g/ha", "value": 2}, {"measurement": "Herbicidal Activity johnson-grass", "setting": "[3]; 63 g/ha", "value": 3}, {"measurement": "Herbicidal Activity johnson-grass", "setting": "[3]; 125 g/ha", "value": 4}, {"measurement": "Herbicidal Activity johnsongrass", "setting": "[4]; 20 g/ha", "value": 1}, {"measurement": "Herbicidal Activity johnsongrass", "setting": "[4]; 40 g/ha", "value": 2}, {"measurement": "Herbicidal Activity johnsongrass", "setting": "[4]; 80 g/ha", "value": 4}]}
{"smiles": "C=CCOC(=O)C(C)Oc1cc(-n2c(=O)cc(C(F)(F)F)n(C)c2=O)c(F)cc1Cl", "note": "(racemic) [Comparative Compound 3, allyl (2RS)-2-[2-chloro-4-fluoro-5-[3-methyl-2,6-dioxo-4-(trifluoromethyl)-1,2,3,6-tetrahydropyrimidin-1-yl]phenoxy]propionate, reference compound]", "values": [{"measurement": "Herbicidal Activity johnsongrass", "setting": "[5]; 16 g/ha", "value": 0}, {"measurement": "Herbicidal Activity johnsongrass", "setting": "[5]; 32 g/ha", "value": 1}, {"measurement": "Herbicidal Activity johnsongrass", "setting": "[5]; 63 g/ha", "value": 2}]}
{"smiles": "COC(=O)C(C)Oc1cc(-n2c(=O)cc(C(F)(F)F)n(C)c2=O)c(F)cc1Cl", "note": "(single isomer, unassigned) [Present Compound 6, methyl 2-[2-chloro-4-fluoro-5-[3-methyl-2,6-dioxo-4-(trifluoromethyl)-1,2,3,6-tetrahydropyrimidin-1-yl]phenoxy]propionate]", "values": [{"measurement": "Herbicidal Activity johnsongrass", "setting": "[6]; 16 g/ha", "value": 4}, {"measurement": "Herbicidal Activity johnsongrass", "setting": "[6]; 32 g/ha", "value": 5}, {"measurement": "Herbicidal Activity johnsongrass", "setting": "[6]; 63 g/ha", "value": 5}, {"measurement": "Herbicidal Activity johnsongrass", "setting": "[7]; 20 g/ha", "value": 3}, {"measurement": "Herbicidal Activity johnsongrass", "setting": "[7]; 40 g/ha", "value": 5}, {"measurement": "Herbicidal Activity johnsongrass", "setting": "[7]; 80 g/ha", "value": 5}]}
{"smiles": "COC(=O)C(C)Oc1cc(-n2c(=O)cc(C(F)(F)F)n(C)c2=O)c(F)cc1Cl", "note": "(single isomer, unassigned) [Present Compound 7, methyl 2-[2-chloro-4-fluoro-5-[3-methyl-2,6-dioxo-4-(trifluoromethyl)-1,2,3,6-tetrahydropyrimidin-1-yl]phenoxy]propionate]", "values": [{"measurement": "Herbicidal Activity johnsongrass", "setting": "[6]; 16 g/ha", "value": 4}, {"measurement": "Herbicidal Activity johnsongrass", "setting": "[6]; 32 g/ha", "value": 5}, {"measurement": "Herbicidal Activity johnsongrass", "setting": "[6]; 63 g/ha", "value": 5}, {"measurement": "Herbicidal Activity johnsongrass", "setting": "[7]; 20 g/ha", "value": 2}, {"measurement": "Herbicidal Activity johnsongrass", "setting": "[7]; 40 g/ha", "value": 5}, {"measurement": "Herbicidal Activity johnsongrass", "setting": "[7]; 80 g/ha", "value": 5}]}
{"smiles": "COC(=O)[C@H](C)Oc1cc(-n2c(=O)cc(C(F)(F)F)n(C)c2=O)c(F)cc1Cl", "note": "[Comparative Compound 1, methyl (2S)-2-[2-chloro-4-fluoro-5-[3-methyl-2,6-dioxo-4-(trifluoromethyl)-1,2,3,6-tetrahydropyrimidin-1-yl]phenoxy]propionate, reference compound]", "values": [{"measurement": "Herbicidal Activity Common Cocklebur", "setting": "[8]", "value": 0}]}
{"smiles": "COC(=O)C(C)Oc1cc(-n2c(=O)cc(C(F)(F)F)n(C)c2=O)c(F)cc1Cl", "note": "(centres unmarked) [Comparative Compound 4, methyl 2-[2-chloro-4-fluoro-5-[3-methyl-2,6-dioxo-4-(trifluoromethyl)-1,2,3,6-tetrahydropyrimidin-1-yl]phenoxy]propionate, reference compound]", "values": [{"measurement": "Herbicidal Activity johnsongrass", "setting": "[6]; 16 g/ha", "value": 1}, {"measurement": "Herbicidal Activity johnsongrass", "setting": "[6]; 32 g/ha", "value": 2}, {"measurement": "Herbicidal Activity johnsongrass", "setting": "[6]; 63 g/ha", "value": 4}, {"measurement": "Herbicidal Activity johnsongrass", "setting": "[7]; 20 g/ha", "value": 0}, {"measurement": "Herbicidal Activity johnsongrass", "setting": "[7]; 40 g/ha", "value": 2}, {"measurement": "Herbicidal Activity johnsongrass", "setting": "[7]; 80 g/ha", "value": 4}]}
{"smiles": "COC(=O)[C@@H](C)Oc1cc(-n2c(=O)cc(C(F)(F)F)n(C)c2=O)c(F)cc1Cl", "note": "[Present Compound 1, methyl (2R)-2-[2-chloro-4-fluoro-5-[3-methyl-2,6-dioxo-4-(trifluoromethyl)-1,2,3,6-tetrahydropyrimidin-1-yl]phenoxy]propionate]", "values": [{"measurement": "Herbicidal Activity Common Cocklebur", "setting": "[8]", "value": 5}]}
{"smiles": "CCOC(=O)[C@@H](C)Oc1cc(-n2c(=O)cc(C(F)(F)F)n(C)c2=O)c(F)cc1Cl", "note": "[Present Compound 2, ethyl (2R)-2-[2-chloro-4-fluoro-5-[3-methyl-2,6-dioxo-4-(trifluoromethyl)-1,2,3,6-tetrahydropyrimidin-1-yl]phenoxy]propionate]", "values": [{"measurement": "Herbicidal Activity barnyard-grass", "setting": "[1]; 16 g/ha", "value": 5}, {"measurement": "Herbicidal Activity barnyard-grass", "setting": "[1]; 32 g/ha", "value": 5}, {"measurement": "Herbicidal Activity barnyard-grass", "setting": "[1]; 63 g/ha", "value": 5}, {"measurement": "Herbicidal Activity hemp sesbania", "setting": "[2]; 16 g/ha", "value": 2}, {"measurement": "Herbicidal Activity hemp sesbania", "setting": "[2]; 32 g/ha", "value": 5}, {"measurement": "Herbicidal Activity hemp sesbania", "setting": "[2]; 63 g/ha", "value": 5}, {"measurement": "Herbicidal Activity johnson-grass", "setting": "[3]; 16 g/ha", "value": 3}, {"measurement": "Herbicidal Activity johnson-grass", "setting": "[3]; 32 g/ha", "value": 5}, {"measurement": "Herbicidal Activity johnson-grass", "setting": "[3]; 63 g/ha", "value": 5}, {"measurement": "Herbicidal Activity johnsongrass", "setting": "[4]; 20 g/ha", "value": 4}, {"measurement": "Herbicidal Activity johnsongrass", "setting": "[4]; 40 g/ha", "value": 5}, {"measurement": "Herbicidal Activity johnsongrass", "setting": "[4]; 80 g/ha", "value": 5}]}
{"smiles": "C=CCOC(=O)[C@@H](C)Oc1cc(-n2c(=O)cc(C(F)(F)F)n(C)c2=O)c(F)cc1Cl", "note": "[Present Compound 3, allyl (2R)-2-[2-chloro-4-fluoro-5-[3-methyl-2,6-dioxo-4-(trifluoromethyl)-1,2,3,6-tetrahydropyrimidin-1-yl]phenoxy]propionate]", "values": [{"measurement": "Herbicidal Activity johnsongrass", "setting": "[5]; 16 g/ha", "value": 3}, {"measurement": "Herbicidal Activity johnsongrass", "setting": "[5]; 32 g/ha", "value": 5}, {"measurement": "Herbicidal Activity johnsongrass", "setting": "[5]; 63 g/ha", "value": 5}]}
{"smiles": "COC(=O)[C@@H](C)Oc1cc(-n2c(=O)cc(C(F)(F)F)n(C)c2=O)c(F)cc1Cl", "note": "[Present Compound 5, methyl (2R)-2-[2-chloro-4-fluoro-5-[3-methyl-2,6-dioxo-4-(trifluoromethyl)-1,2,3,6-tetrahydropyrimidin-1-yl]phenoxy]propionate]", "values": [{"measurement": "Herbicidal Activity johnsongrass", "setting": "[6]; 16 g/ha", "value": 4}, {"measurement": "Herbicidal Activity johnsongrass", "setting": "[6]; 32 g/ha", "value": 5}, {"measurement": "Herbicidal Activity johnsongrass", "setting": "[6]; 63 g/ha", "value": 5}, {"measurement": "Herbicidal Activity johnsongrass", "setting": "[7]; 20 g/ha", "value": 4}, {"measurement": "Herbicidal Activity johnsongrass", "setting": "[7]; 40 g/ha", "value": 5}, {"measurement": "Herbicidal Activity johnsongrass", "setting": "[7]; 80 g/ha", "value": 5}]}
